The nature of the data set: Acid-base constants (pKa) and isoelectric point (pI) by fluorimetry, confirmed by UV-Vis. It counts as physicochemical. The conditions noted are these: for pKa2 / pKa1: fluorimetric, inflection of I/pH curve, confirmed by UV-Vis, average values from repeatable results; for pKa2: pH 1 to 12, rhodamine part (λex 560 nm); for pKa1: pH 1 to 12, tryptophan emission (λex 275 nm); for pI: isoelectric point calculated from the protolytic constants. As to the method: When studying the fluorescence properties, the emission spectra were recorded upon excitation at two wavelengths: λ^ex = 275 nm where tryptophan/tyrosine fluoresces, and at λ^ex = 560 nm where excitation of the rhodamine moiety is possible (Figure 5 and Figure 6). […] With both amino acids present in the indicated complex mixture, the fluorescence in the 300–400 nm range is more likely to originate from the indole group of the tryptophan residue, which is known to emit at ~350 nm at an excitation wavelength of 280 nm. Moreover, spectra were recorded at different pHs of the medium to determine the study compounds’ acid constants and isoelectric points. All compounds show similar behavior of fluorescence properties with minimal difference in wavelength where the compound absorbs in the visible region (1–2 nm). A strong decrease in the intensity of the emission maximum at λ^em = 585 nm is observed with an increase in the pH of the medium, which is due to the structural changes associated with the closure of the spirolactam ring at rhodamine. pH also affects the fluorescence emission intensity of the tryptophan/tyrosine spectral line. […] The obtained emission spectra at different pHs helped us to determine the acidity constants of the obtained compounds. pK values were obtained by selecting the inflection points of the I/pH curve at two wavelengths: 275 nm, where tryptophan emits, and 575 nm for the rhodamine part, respectively (Figure 5 and Figure 6, inserted graphs). At these points the concentrations of conjugated acid and base are equal, i.e., [HRh-S] = [Rh-S-], and according to the known relationship […] at this point pKa = рН. Equations (1) and (2) given in the experimental part were also used to calculate the acid constants to confirm the values. […] The proven higher values of the constants given in [24] are due to the influence of the –OH group of tyrosine, located near the spirolactam ring of rhodamine and leading to its more effortless opening. […] Based on the obtained values of the protolytic constants, the isoelectric points were calculated where the compounds would show zero charge and reduced solubility (Table 1). […] Stokes shift, showing the differences between the structure of the fluorophore in the ground S0 state and in the first excited state S1, was also determined as an essential feature for the rhodamine peptide derivatives (Figure 5, Table 2). The Stokes shift for all compounds at the rhodamine moiety is ~859 cm^−1, which is consistent with the rhodamine derivatives known in the literature.
Acid base constants and isoelectric points were determined fluorimetrically and confirmed by UV–Vis analyses. Absorption and emission spectra were recorded on a series of solutions with the same concentration of the peptide derivatives at different pHs (from 1 to 12). The assay data (intensity/absorbance versus pH) were processed with Origin8Pro mathematical software. The pK value were determined using the following equations:log [(Amax − A)/(A − Amin)] = pH − pKa(1) log [(IF max − IF)/(IF − IF min)] = pH – pKa(2) where the minimum (Amin) and the maximum (Amax) absorbances are at 275 nm and 557 nm, respectively, A is the absorbance at the given pH value; Fmax and Fmin are the maximum and minimum fluorescence emission intensity at 356 and 585 nm, respectively, F is the fluorescence intensity at the given pH value.

Where a SMILES comes first, the peptide text is derived from it. [ ]: non-standard residue; d: D form. The star is where a group is joined. X1 = CCN(CC)c1ccc2c(c1)Oc1cc(N(CC)CC)ccc1C2c1ccccc1C(=O)*; Ac6c = NC1(C(=O)O)CCCCC1; Ac5c = NC1(C(=O)O)CCCC1

For `CCN(CC)c1ccc2c(c1)Oc1cc(N(CC)CC)ccc1C2c1ccccc1C(=O)N[C@@H](CC(C)C)C(=O)N[C@H](C(=O)N[C@H](C(=O)N[C@@H](Cc1ccc(O)cc1)C(=O)NC1(C(=O)N[C@@H](Cc2c[nH]c3ccccc23)C(=O)N[C@H](C(N)=O)[C@@H](C)O)CCCC1)C(C)C)C(C)C` [Rh-S5, rhodamineB-Leu-Val-Val-Tyr-Ac5c-Trp-Thr-NH2] (X1-LVVY[Ac5c]WT-NH2), the pKa2 was found to be 5.36, the pKa1 is 5.11 and the pI was 5.23.

Consider `CCN(CC)c1ccc2c(c1)Oc1cc(N(CC)CC)ccc1C2c1ccccc1C(=O)N[C@@H](CC(C)C)C(=O)N[C@H](C(=O)N[C@H](C(=O)N[C@@H](Cc1ccc(O)cc1)C(=O)NC1(C(=O)N[C@@H](Cc2c[nH]c3ccccc23)C(=O)N[C@H](C(N)=O)[C@@H](C)O)CCCCC1)C(C)C)C(C)C` [Rh-S6, rhodamineB-Leu-Val-Val-Tyr-Ac6c-Trp-Thr-NH2] (X1-LVVY[Ac6c]WT-NH2), for which the pKa2 is 4.94, the pKa1 was 6.35 and the pI was 5.65.

For `CCN(CC)c1ccc2c(c1)Oc1cc(N(CC)CC)ccc1C2c1ccccc1C(=O)N[C@@H](CC(C)C)C(=O)N[C@H](C(=O)N[C@H](C(=O)N[C@@H](Cc1ccc(O)cc1)C(=O)N1CCC[C@H]1C(=O)N[C@@H](Cc1c[nH]c2ccccc12)C(=O)N[C@H](C(N)=O)[C@@H](C)O)C(C)C)C(C)C` [Rh-S, rhodamineB-Leu-Val-Val-Tyr-Pro-Trp-Thr-NH2] (X1-LVVYPWT-NH2), the pKa2 was 4.56, the pKa1 turned out to be 7.09 and the pI is recorded as 5.82.

These data come from paper PMC9611726, “Synthesis, Characterization and Biological Investigation of New N-Modified Spinorphin Analogs” (Pharmaceuticals, 2022).
